Results published in PubChem BioAssay AID248 (DTP/NCI, 2004).
“And” between values parts separate entries of the source, which are not always exact repeats. Equal values may be shown once. Toxic doses and inconclusive results are not listed. Rule as the data show it: active = T/C of 150% or more; inactive = T/C below 125%.

Test system: L1210 leukemia ip in BDF1 mice, survival T/C
Assay: NCI In Vivo Anticancer Drug Screen. Data for tumor model L1210 Leukemia (intraperitoneal) in B6D2F1 (BDF1) mice
Settings: endpoint: mean survival time, higher = longer survival
Summary of the method: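 Transplantable tumor model; survival measured in treated vs vehicle control mice. Value = treated/control.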

[1] = dose: 75.0 mg/kg/injection, schedule: Q01DX001 (ip), vehicle: Klucel (hydroxypropylcellulose) (HPC)
[2] = dose: 150.0 mg/kg/injection, schedule: Q01DX001 (ip), vehicle: Klucel (hydroxypropylcellulose) (HPC)
[3] = dose: 100.0 mg/kg/injection, schedule: Q01DX009 (ip), vehicle: saline with Tween-80
[4] = dose: 100.0 mg/kg/injection, schedule: Q04DX003 (ip), vehicle: saline with Tween-80
[5] = dose: 200.0 mg/kg/injection, schedule: Q01DX009 (ip), vehicle: saline with Tween-80
[6] = dose: 200.0 mg/kg/injection, schedule: Q04DX003 (ip), vehicle: saline with Tween-80
[7] = dose: 400.0 mg/kg/injection, schedule: Q01DX009 (ip), vehicle: saline with Tween-80
[8] = dose: 400.0 mg/kg/injection, schedule: Q04DX003 (ip), vehicle: saline with Tween-80

Measured: T/C

CCCS(=O)(=O)c1ccc(C)cc1
inactive: dose: 100.0 mg/kg/injection, schedule: Q01DX001 (ip), vehicle: saline 98 % of control | dose: 100.0 mg/kg/injection, schedule: Q01DX009 (ip), vehicle: saline 94 % of control | dose: 100.0 mg/kg/injection, schedule: Q04DX003 (ip), vehicle: acetone 100 % of control | dose: 200.0 mg/kg/injection, schedule: Q01DX001 (ip), vehicle: saline 98 % of control | dose: 200.0 mg/kg/injection, schedule: Q01DX009 (ip), vehicle: saline 93 % of control | dose: 200.0 mg/kg/injection, schedule: Q04DX003 (ip), vehicle: acetone 102 % of control | dose: 400.0 mg/kg/injection, schedule: Q01DX001 (ip), vehicle: saline 107 % of control | dose: 400.0 mg/kg/injection, schedule: Q01DX009 (ip), vehicle: saline 93 % of control | dose: 400.0 mg/kg/injection, schedule: Q04DX003 (ip), vehicle: acetone 100 % of control

COc1ccccc1-n1c(O)c(N=Nc2ccc(Cl)cc2)c(=O)n(-c2ccc(I)cc2)c1=S
inactive: dose: 37.5 mg/kg/injection, schedule: Q01DX001 (ip), vehicle: Klucel (hydroxypropylcellulose) (HPC) 94 % of control | [1] 94 % of control | [2] 90 % of control

COc1ccc(-n2c(=O)c(N=Nc3ccccc3C)c(O)n(-c3ccccc3OC)c2=S)cc1
inactive: [1] 97 % of control | [2] 92 % of control

CCOC(=O)c1cnc2ccc(OC)cc2c1Cl
inactive: [3] 95 % of control | [4] 107 % of control | [5] 101 % of control | [6] 104 % of control | [7] 97 % of control | [8] 96 % of control

COc1ccc(COC2C(O)C(CO)OC2n2ccc(N)nc2=O)cc1 (stereo not given)
inactive: dose: 12.5 mg/kg/injection, schedule: Q01DX005 (ip), vehicle: saline 103 % of control | dose: 25.0 mg/kg/injection, schedule: Q01DX005 (ip), vehicle: saline 100 % of control | dose: 50.0 mg/kg/injection, schedule: Q01DX005 (ip), vehicle: saline 94 % of control | dose: 100.0 mg/kg/injection, schedule: Q01DX005 (ip), vehicle: saline 107 % of control

CC(=O)CC(C)=Nc1ccc([N+](=O)[O-])cc1
inactive: [4] 101 % of control | [6] 103 % of control | [8] 89 % of control

O=[N+]([O-])c1cc2c(c([N+](=O)[O-])c1)OCOC2
inactive: dose: 100.0 mg/kg/injection, schedule: Q04DX003 (ip), vehicle: saline 100 % of control | dose: 200.0 mg/kg/injection, schedule: Q04DX003 (ip), vehicle: saline 97 % of control | dose: 400.0 mg/kg/injection, schedule: Q04DX003 (ip), vehicle: saline 107 % of control

CSc1cnnc2ccccc12
inactive: dose: 25.0 mg/kg/injection, schedule: Q01DX009 (ip), vehicle: Klucel (hydroxypropylcellulose) (HPC) 110 % of control | dose: 50.0 mg/kg/injection, schedule: Q01DX009 (ip), vehicle: Klucel (hydroxypropylcellulose) (HPC) 115 % of control

CCc1cc(C)cc(OC(=O)Nc2cc(Cl)ccc2OC)c1
inactive: dose: 100.0 mg/kg/injection, schedule: Q01DX001 (ip), vehicle: saline with Tween-80 104 % of control | [3] 95 % of control | dose: 100.0 mg/kg/injection, schedule: Q04DX002 (ip), vehicle: saline with Tween-80 94 % of control and 95 % of control | dose: 200.0 mg/kg/injection, schedule: Q01DX001 (ip), vehicle: saline with Tween-80 93 % of control | [5] 93 % of control | dose: 200.0 mg/kg/injection, schedule: Q04DX002 (ip), vehicle: saline with Tween-80 95 % of control and 90 % of control | dose: 400.0 mg/kg/injection, schedule: Q01DX001 (ip), vehicle: saline with Tween-80 95 % of control | [7] 119 % of control | dose: 400.0 mg/kg/injection, schedule: Q04DX002 (ip), vehicle: saline with Tween-80 95 % of control and 86 % of control

O=[N+]([O-])c1ccc(SNc2ccc(O)cc2)cc1[N+](=O)[O-]
inactive: dose: 100.0 mg/kg/injection, schedule: Q01DX009 (ip), vehicle: Klucel (hydroxypropylcellulose) (HPC) 101 % of control | dose: 100.0 mg/kg/injection, schedule: Q04DX003 (ip), vehicle: Klucel (hydroxypropylcellulose) (HPC) 94 % of control | dose: 200.0 mg/kg/injection, schedule: Q01DX009 (ip), vehicle: Klucel (hydroxypropylcellulose) (HPC) 100 % of control | dose: 200.0 mg/kg/injection, schedule: Q04DX003 (ip), vehicle: Klucel (hydroxypropylcellulose) (HPC) 100 % of control | dose: 400.0 mg/kg/injection, schedule: Q01DX009 (ip), vehicle: Klucel (hydroxypropylcellulose) (HPC) 105 % of control | dose: 400.0 mg/kg/injection, schedule: Q04DX003 (ip), vehicle: Klucel (hydroxypropylcellulose) (HPC) 95 % of control

C[N+](C)(CC(=O)Nc1cc(C(F)(F)F)cc(C(F)(F)F)c1)CC(=O)Nc1ccc(Cl)c(C(F)(F)F)c1
inactive: dose: 6.25 mg/kg/injection, schedule: Q04DX002 (ip), vehicle: saline with Tween-80 93 % of control | dose: 12.5 mg/kg/injection, schedule: Q04DX002 (ip), vehicle: saline with Tween-80 93 % of control | dose: 25.0 mg/kg/injection, schedule: Q04DX002 (ip), vehicle: saline with Tween-80 100 % of control and 91 % of control
